{"source": "patent US20230391824A1", "about": "“RATIONALE, DESIGN, SYNTHESIS AND VALIDATION OF A SMALL MOLECULE ANTICANCER AGENT” (priority 2021, published 2023)", "molecular_target": "T1, Lin28A protein (Homo sapiens, UniProt Q9H9Z2)", "T1 construct": "in a panel of endogenously LIN28 expressing cancer cell models; endogenous in cells; host or cells: T47D, YP-MEL, BT-12, BT-37, NT-2 (NTERA)", "T1 sequence (Q9H9Z2 1-209)": "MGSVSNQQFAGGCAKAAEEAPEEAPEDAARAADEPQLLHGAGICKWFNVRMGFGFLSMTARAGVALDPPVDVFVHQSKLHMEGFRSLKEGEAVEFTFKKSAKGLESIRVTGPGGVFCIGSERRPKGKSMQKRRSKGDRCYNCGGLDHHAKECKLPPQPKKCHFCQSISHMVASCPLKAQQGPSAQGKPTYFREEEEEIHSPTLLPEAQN", "assay": "Western blotting of Lin28A protein in cancer cell models", "assay_type": "cell-based", "protocol": "FIG. 5: Compound of formula (I) mixture, containing the two isomers (P1+P2) causes significant reduction in Lin28A protein from 5 μM onwards, in a panel of endogenously LIN28 expressing cancer cell models. […] LIN28A and LIN28B expression profile in pediatric CNS cancer cell lines, 96-hr post-treatment with Compound of formula (I). SDS-PAGE on 10% polyacrylamide gel of total cell lysates from untreated cells harvested at 80-90% confluency. Samples loaded with volumes for 20 μg protein. LIN28A and LIN28B proteins were detected using the anti-LIN28A antibody (#8706; Cell Signaling Technology) and anti-LIN28B antibody (#11965; Cell Signalling Technology) at 1:2000 dilutions. T47D: adult breast cancer (LIN28A expressing); YPMEL: malignant melanoma derived from Neurocutaneous Melanosis (NCM) (Lin28A and Lin28B expressing); BT-12: pediatric atypical-teratoid rhabdoid tumor (AT/RT).\nFIG. 7A-C: To determine the differences in the biological activity of the two isomers (P1+P2) of Compound of formula (I), we tested the effects of purified and separated P1 and P2 isomers on the protein expression of Lin28A and Lin28B. (A) YP-MEL (NCM). (B) BT-37 (AT/RT). (C) NT-2 (NTERA) (Testicular cancer).\nThe proteins were extracted from the same samples as the RNA using the RIPA lysis buffer. The protein extracts (20 μg) were run on 10% SDS-PAGE and transferred on a nitrocellulose blotting membrane 0.22 μm (GE Healthcare) using the Trans-Blot® SD semi-dry transfer devise (Biorad). The proteins were detected using the anti-Lin28A antibody (#8706; Cell Signaling Technology), anti-Lin28B antibody (#11965, Cell Signaling Technology) the anti-beta-actin antibody at respectively 1:2000, 1:2000 and 1:5000 dilutions.", "data": [{"smiles": "CC[C@H](C)[C@H](NC(=O)[C@H](Cc1ncc[nH]1)NC(=O)c1cccc(C(N)=O)c1)C(=O)Nc1ccc(O)c(-c2nc3ccccc3s2)c1", "note": "[Compound P1]", "values": [{"measurement": "selectivity relative to the crude mixture containing P1+P2", "setting": "Lin28A inhibition, FIG. 7 versus FIG. 5", "value": 5, "unit": "times"}, {"measurement": "concentration from which Lin28A is selectively inhibited", "setting": "YP-MEL, BT-37, NT-2 cells", "value": "≥ 1", "unit": "µM"}]}]}
